In the assay the test system is IL-12 induced STAT4 phosphorylation mediated by TYK2/JAK2. The assay can be described thus: IL-12 induced pSTAT4 in human PBMC. In kind it is cell-based. To be noted: 1 hr compound, 1.7 ng/mL IL-12 for 30 minutes. A digest of the protocol:
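Thawed human PBMC were pre-incubated with compound for 1 hr at 37 °C (0.1% DMSO), then stimulated with 1.7 ng/mL IL-12 for 30 minutes. Phospho-STAT4 and total STAT4 were measured in cell lysates by MSD.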

Bounds are passed on as bounds.

A word on the IC50: it is the concentration that gives 50% inhibition.

In the case of `CNc1cc(-c2cn([C@@H]3COC[C@H]3OC)c3ccccc23)nc2c(C(=O)NC3CC[C@@H]3OC)cnn12` (stereo partly drawn) [Compound I-744], the IC50 was below 0.1 µM.

In turn, `CNc1cc(-c2cn([C@@H]3COC[C@H]3OC)c3ccccc23)nc2c(C(=O)N[C@@H]3CC[C@H]3OC)cnn12` [Compound I-746] came in with an IC50 below 0.1 µM.

Consider `O=C(N[C@@H]1C[C@@H]1F)c1cnn2c3c(c(Nc4cccc5ocnc45)nc12)OCCN3` [Compound I-752], for which the IC50 is below 0.1 µM.

For the compound `CC(C)n1cc(-c2nc3c(C(=O)NC4CC[C@H]4O)cnn3c3c2OCCN3)c2cccnc21` (stereo partly drawn) [Compound I-753], the IC50 was below 0.1 µM.

In turn, `CC(C)n1cc(-c2nc3c(C(=O)N[C@H]4CC[C@H]4O)cnn3c3c2OCCN3)c2cccnc21` [Compound I-754] had an IC50 below 0.1 µM.

Consider `O=C(NC1CC[C@@H]1F)c1cnn2c3c(c(-c4cn([C@H]5C[C@H](O)C5)c5ncccc45)nc12)OCCN3` (stereo partly drawn) [Compound I-756], for which the IC50 was below 0.1 µM.

For `O=C(N[C@H]1CC[C@@H]1F)c1cnn2c3c(c(-c4cn([C@H]5C[C@H](O)C5)c5ncccc45)nc12)OCCN3` [Compound I-757], the IC50 is below 0.1 µM.

The compound `CO[C@@H]1CC[C@H]1NC(=O)c1cnn2c3c(c(Nc4cccn(C(C)C)c4=O)nc12)OCCN3` [Compound I-760] displayed an IC50 below 0.1 µM.

`CO[C@@H]1CCC1NC(=O)c1cnn2c3c(c(Nc4cccn([C@H]5[C@@H]6COC[C@@H]65)c4=O)nc12)OCCN3` (stereo partly drawn) [Compound I-762]: the IC50 was below 0.1 µM.

In the case of `CC(C)n1cccc(Nc2nc3c(C(=O)NC4CCC4(F)F)cnn3c3c2OCCN3)c1=O` (stereo not drawn) [Compound I-765], the IC50 is below 0.1 µM.

Consider `CC(C)n1cccc(Nc2nc3c(C(=O)N[C@H]4CCC4(F)F)cnn3c3c2OCCN3)c1=O` [Compound I-766], for which the IC50 is below 0.1 µM.

Take `O=C(NC1CCC1(F)F)c1cnn2c3c(c(Nc4cccn([C@H]5[C@@H]6COC[C@@H]65)c4=O)nc12)OCCN3` (stereo partly drawn) [Compound I-768]: the IC50 is below 0.1 µM.

In turn, `O=C(N[C@@H]1CCC1(F)F)c1cnn2c3c(c(Nc4cccn([C@H]5[C@@H]6COC[C@@H]65)c4=O)nc12)OCCN3` [Compound I-769] registered an IC50 below 0.1 µM.

With `O=C(N[C@@H]1CCC1(F)F)c1cnn2c3c(c(-c4cn(C5COC5)c5ncccc45)nc12)OCCN3` [Compound I-772], the half-inhibitory concentration (IC50) was below 0.1 µM.

With `O=C(NC1CC[C@@H]1F)c1cnn2c3c(c(-c4cn(C5COC5)c5ncccc45)nc12)OCCN3` (stereo partly drawn) [Compound I-774], the IC50 is below 0.1 µM.

The compound `O=C(N[C@H]1CCC1(F)F)c1cnn2c3c(c(-c4cn([C@H]5C[C@H](O)C5)c5ncccc45)nc12)OCCN3` [Compound I-776] yielded an IC50 below 0.1 µM.

In turn, `CNc1cc(Nc2cccn([C@H]3C[C@@H](OC)C3)c2=O)nc2c(C(=O)NC3CC[C@@H]3OC)cnn12` (stereo partly drawn) [Compound I-780] displayed an IC50 below 0.1 µM.

For `CNc1ccc(-c2cc(NC)n3ncc(C(=O)N[C@H]4CC[C@H]4F)c3n2)n2ccnc12` [Compound I-784], the IC50 is below 0.1 µM.

`CNc1cc(-c2cn([C@@H]3COC[C@H]3OC)c3ccccc23)nc2c(C(=O)N[C@H]3CC[C@H]3O)cnn12` [Compound I-787] yielded an IC50 below 0.1 µM.

`CNc1cc(-c2cn([C@H]3COC[C@@H]3OC)c3ccccc23)nc2c(C(=O)N[C@H]3CC[C@H]3O)cnn12` [Compound I-790]: the IC50 was below 0.1 µM.

In turn, `CNc1cc(-c2cn(CCOC)c3ncccc23)nc2c(C(=O)NC3CC[C@@H]3OC)cnn12` (stereo partly drawn) [Compound I-795] had a concentration for half-maximal inhibition (IC50) below 0.1 µM.

In turn, `CNc1cc(-c2cn([C@H]3CCOC[C@H]3OC)c3ncccc23)nc2c(C(=O)N[C@H]3CC[C@@H]3F)cnn12` [Compound I-796] showed an IC50 below 0.1 µM.

Turning to `CNc1cc(-c2cn([C@@H]3CCOC[C@@H]3OC)c3ncccc23)nc2c(C(=O)N[C@H]3CC[C@@H]3F)cnn12` [Compound I-798], the IC50 was below 0.1 µM.

As to `CNc1cc(-c2cn([C@H]3CCOC[C@@H]3F)c3ncccc23)nc2c(C(=O)N[C@H]3CC[C@@H]3OC)cnn12` [Compound I-802], the IC50 is below 0.1 µM.
